The values below are quoted from earlier work in US20220016058A1, “PHARMACEUTICAL COMPOSITION CONTAINING TAMSULOSIN HYDROCHLORIDE WITH EXCELLENT ACID RESISTANCE AND PREPARATION METHOD THEREFOR” (HANMI PHARM. CO., LTD., priority 2018, published 2022).

Where a name gives a salt, the structure may show the parent alone.

As for `CCOc1ccccc1OCCN[C@H](C)Cc1ccc(OC)c(S(N)(=O)=O)c1` [tamsulosin hydrochloride, Tamsulosin hydrochloride], the Solubility in water result is reported as “dissolving a little in water”.
